{"source": "patent US10674724B2", "about": "“Method of activating immune response in plants” (priority 2012, dated 2020)", "key": {"[1]": {"target": "T1, NPR1 C521S/C529S (Arabidopsis thaliana, UniProt P93002, C521S/C529S)", "T1 construct": "both full-length NPR1 and Δ513 harboring C-to-S mutations at Cys^521/529; made in house; host or cells: E. coli", "T1 sequence (P93002 whole entry C521S/C529S)": "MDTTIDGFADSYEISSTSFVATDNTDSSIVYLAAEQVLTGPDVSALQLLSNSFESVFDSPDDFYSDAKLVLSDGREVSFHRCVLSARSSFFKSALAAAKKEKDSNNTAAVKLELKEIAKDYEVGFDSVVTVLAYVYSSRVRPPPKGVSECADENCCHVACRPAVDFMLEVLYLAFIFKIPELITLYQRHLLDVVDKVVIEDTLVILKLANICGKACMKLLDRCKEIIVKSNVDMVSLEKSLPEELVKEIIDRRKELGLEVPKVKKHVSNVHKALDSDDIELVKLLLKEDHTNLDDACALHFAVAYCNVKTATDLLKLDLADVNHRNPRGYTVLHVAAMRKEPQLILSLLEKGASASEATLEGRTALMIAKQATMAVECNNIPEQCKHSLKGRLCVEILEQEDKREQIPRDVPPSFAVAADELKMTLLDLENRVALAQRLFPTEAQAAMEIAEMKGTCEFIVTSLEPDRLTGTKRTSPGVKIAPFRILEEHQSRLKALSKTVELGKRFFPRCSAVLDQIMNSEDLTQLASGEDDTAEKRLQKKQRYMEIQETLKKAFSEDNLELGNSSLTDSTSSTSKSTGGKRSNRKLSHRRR", "assay": "Sephacryl S300 gel filtration of NPR1 Cys-to-Ser mutant", "format": "biochemical", "settings": "1 mM SA", "experimental": "Strep-tagged purified proteins in a final volume of 2 ml were subjected to gel filtration analysis on the Sephacryl S100 HR or Sephacryl S300 HR packed in 50 cm long HR 16 columns (GE Health) and equilibrated with S300 chromatography buffer (50 mM HEPES, pH 7.4, 250 mM NaCl. Elutions, in 0.5 ml fractions, were performed in the same buffer at a flow rate of 0.8 ml/min. Where indicated, proteins were incubated with 1 mM SA, 1 mM catechol, 1 mM 4-hydroxy benzoic acid, or 1 mM methyl-salicylate at room temperature for 30 min prior to chromatography as described above with the exception that the chromatography buffer was supplemented with 1 mM SA, 1 mM catechol, 1 mM 4-hydroxy benzoic acid, or 1 mM methyl-salicylate, respectively. In the case of the EDTA treatment, NPR1 was stripped of its metal by a 50 mM EDTA treatment of 30 min, followed by an incubation of 30 min with 1 mM SA prior to gel filtration. In this case, the chromatography buffer was supplemented with 1 mM SA."}, "[2]": {"target": "T2, NPR1-dependent oligomer on the PR-1 promoter (Arabidopsis thaliana, UniProt P93002)", "T2 construct": "in wild-type plants (WT), such an oligomer forms on the PR-1 promoter; endogenous in cells; host or cells: wild-type Arabidopsis plants", "T2 sequence (P93002 1-593)": "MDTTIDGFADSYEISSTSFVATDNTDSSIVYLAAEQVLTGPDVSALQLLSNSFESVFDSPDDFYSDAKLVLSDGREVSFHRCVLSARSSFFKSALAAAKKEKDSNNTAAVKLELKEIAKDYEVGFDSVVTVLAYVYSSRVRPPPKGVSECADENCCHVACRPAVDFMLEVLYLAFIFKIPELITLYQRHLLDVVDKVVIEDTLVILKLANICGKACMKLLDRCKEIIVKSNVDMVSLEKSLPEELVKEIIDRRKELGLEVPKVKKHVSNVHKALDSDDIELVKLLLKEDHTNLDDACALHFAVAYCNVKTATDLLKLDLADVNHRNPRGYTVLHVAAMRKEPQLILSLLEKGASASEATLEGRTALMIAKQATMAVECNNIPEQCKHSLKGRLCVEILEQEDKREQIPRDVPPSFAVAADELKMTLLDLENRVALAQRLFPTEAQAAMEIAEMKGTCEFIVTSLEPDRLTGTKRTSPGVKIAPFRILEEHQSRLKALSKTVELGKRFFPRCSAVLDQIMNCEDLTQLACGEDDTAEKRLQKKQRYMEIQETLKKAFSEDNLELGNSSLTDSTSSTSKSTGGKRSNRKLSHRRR", "assay": "Cross-linked-chromatin chromatography (3C Method)", "format": "in vivo", "settings": "wild-type plants, region −734 to −833", "experimental": "Plant treatment, cross-linking, sonication, and cross-linking reversal were performed as for chromatin-immunoprecipitation (Rochon et al., 2006). Chromatography was as described under “Chromatography”. qPCR was performed with PR1 and Ubiquitin5 primers. PR-1 values were normalized against Ubiquitin5 (see Table 1 for primer sequence).\nAlthough there are no decisive methods to test the stoichiometry of a protein in vivo, it was determined whether or not NPR1-dependent oligomers form on DNA in vivo by combining chromatin cross-linking, gel filtration, and qPCR (the 3C Method). The rationale was that, if an NPR1-dependent oligomer forms on the PR1 promoter in vivo, the presence of PR1 should be detectable by qPCR in the void fraction of an S300 after the chromatin had been cross-linked and sheared by sonication."}}}
{"smiles": "O=C(O)c1ccccc1O", "note": "[SA, Salicylic acid]", "values": [{"measurement": "SA-induced NPR1 conformation change, Cys521/529 mutant", "setting": "[1]", "result": "abolished the NPR1 conformation change"}, {"measurement": "NPR1-dependent oligomer on the PR-1 promoter (void fraction, qPCR)", "setting": "[2]", "result": "not after a treatment with SA"}]}
